How the values were obtained:
Format in all cases: cell-based
SW480 (colon cancer) = assay: Antiproliferative activity (CCK-8 cell viability), SW480; settings: Homo sapiens, 72 h, read-out: Antiproliferative activity in cancerous cells, SW480 (inhibition of cell growth); for inhibition at 3.3 µM: Compound concentration: 3.3 μM; for inhibition at 10 µM: Compound concentration: 10 μM
Method in brief: (§1)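 Cells grown in DMEM (HepG2, SW480), MEM (HeLa) or F-12K (A549), each with 10% FBS, then exposed to compound at 3.3, 10 or 30 μM for 72 h at 37 °C. CCK-8 absorbance at 450 nm; viability expressed as percent of DMSO-treated cells, graded as growth inhibition bands.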

[1] = test system: A549 (lung adenocarcinoma); assay: Antiproliferative activity (CCK-8 cell viability), A549; settings: Homo sapiens, 72 h; for inhibition at 3.3 µM: Compound concentration: 3.3 μM; for inhibition at 3.3 µM / inhibition at 10 µM: read-out: Antiproliferative activity in cancerous cells, A549 (inhibition of cell growth); for inhibition at 10 µM: Compound concentration: 10 μM
Method in brief: as §1

[2] = test system: A431 (epidermoid carcinoma); assay: Antiproliferative activity (CCK-8 cell viability), A431; settings: Homo sapiens, 72 h; for inhibition at 3.3 µM: A-431, Compound concentration: 3.3 μM; for inhibition at 3.3 µM / inhibition at 10 µM: read-out: Antiproliferative activity in cancerous cells, A431 (inhibition of cell growth); for inhibition at 10 µM: A-431, Compound concentration: 10 μM; for inhibition at 30 µM: A-431, Compound concentration: 30 μM, read-out: Antiproliferative activity in cancerous cells, A431
Method in brief: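 A431 epidermoid carcinoma cells grown in DMEM with 10% FBS were plated at 2,000-5,000 cells/well in 96-well plates. After attachment they were exposed to compound at 3.3 μM, 10 μM, or 30 μM for 72 h at 37° C. Viability was then assessed by CCK-8 against DMSO vehicle-treated wells.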

[3] = test system: MDA-MB-231 (breast cancer); assay: Antiproliferative activity (CCK-8 cell viability), MDA-MB-231; settings: Homo sapiens, 72 h; for inhibition at 3.3 µM: Compound concentration: 3.3 μM; for inhibition at 3.3 µM / inhibition at 10 µM: read-out: Antiproliferative activity in cancerous cells, MDA-MB-231 (inhibition of cell growth); for inhibition at 10 µM: Compound concentration: 10 μM
Method in brief: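 MDA-MB-231 breast cancer cells, grown in DMEM with 10% FBS, were plated in 96-well plates at 2,000-5,000 cells/well. Once attached, they were exposed to compound and incubated at 37° C. for 72 h. Viability was then measured with CCK-8 (10 μL per well, 4 h at 37° C.) by absorbance at 450 nm, relative to DMSO vehicle wells.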

[4] = test system: B16F10 (malignant melanoma); assay: Antiproliferative activity (CCK-8 cell viability), B16F10; settings: Mus musculus, 72 h, read-out: Antiproliferative activity in cancerous cells, B16F10 (inhibition of cell growth); for inhibition at 3.3 µM: B16-F10, Compound concentration: 3.3 μM; for inhibition at 10 µM: B16-F10, Compound concentration: 10 μM
Method in brief: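 B16F10 melanoma cells grown in DMEM with 10% FBS were plated in 96-well plates at 2,000-5,000 cells/well. After attachment they were exposed to compound in medium for 72 h at 37° C. CCK-8 solution (10 μL) was then added, and after 4 h at 37° C absorbance was read at 450 nm.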

HepG2 (liver cancer) = assay: Antiproliferative activity (CCK-8 cell viability), HepG2; settings: Homo sapiens, 72 h, read-out: Antiproliferative activity in cancerous cells, HepG2 (inhibition of cell growth); for inhibition at 3.3 µM: Compound concentration: 3.3 μM; for inhibition at 10 µM: Compound concentration: 10 μM
Method in brief: as §1

HeLa (cervical cancer) = assay: Antiproliferative activity (CCK-8 cell viability), HeLa; settings: Homo sapiens, 72 h, read-out: Antiproliferative activity in cancerous cells, HELA (inhibition of cell growth); for inhibition at 3.3 µM: Compound concentration: 3.3 μM; for inhibition at 10 µM: Compound concentration: 10 μM
Method in brief: as §1

| Structure (SMILES) | inhibition at 3.3 µM (SW480 (colon cancer)) [%] | inhibition at 10 µM (SW480 (colon cancer)) [%] | inhibition at 3.3 µM [1] [%] | inhibition at 10 µM [1] [%] | inhibition at 3.3 µM [2] [%] | inhibition at 10 µM [2] [%] | inhibition at 30 µM [2] [%] | inhibition at 3.3 µM [3] [%] | inhibition at 10 µM [3] [%] | inhibition at 3.3 µM [4] [%] | inhibition at 10 µM [4] [%] | inhibition at 3.3 µM (HepG2 (liver cancer)) [%] | inhibition at 10 µM (HepG2 (liver cancer)) [%] | inhibition at 3.3 µM (HeLa (cervical cancer)) [%] | inhibition at 10 µM (HeLa (cervical cancer)) [%] | inhibition at 30 µM ([3]; Compound concentration: 30 μM, read-out: Antiproliferative activity in cancerous cells, MDA-MB-231) [%] | inhibition at 30 µM ([1]; Compound concentration: 30 μM, read-out: Antiproliferative activity in cancerous cells, A549) [%] |
| --- | --- | --- | --- | --- | --- | --- | --- | --- | --- | --- | --- | --- | --- | --- | --- | --- | --- |
| CC1=C(CC(=O)O)c2cc(F)ccc2/C1=C\c1cccc([S+]([O-])c2ccc(F)cc2)c1 (stereo not drawn) [C43, (Z)-2-(5-Fluoro-1-(3-((4-fluorophenyl)sulfinyl)benzylidene)-2-methyl-1H-inden-3-yl)acetic acid] | < 30 | < 30 | < 30 | 30 to 50 | 30 to 50 | 30 to 50 | 30 to 50 | 30 to 50 | ≥ 50 | < 30 | < 30 | < 30 | < 30 | < 30 | 30 to 50 | – | – |
| CC1=C(CC(=O)O)c2cc(F)ccc2/C1=C\c1cccc(S(=O)(=O)c2ccc(F)cc2)c1 [C44, (Z)-2-(5-Fluoro-1-(3-((4-fluorophenyl)sulfonyl)benzylidene)-2-methyl-1H-inden-3-yl)acetic acid] | < 30 | 30 to 50 | < 30 | 30 to 50 | ≥ 50 | 30 to 50 | – | ≥ 50 | ≥ 50 | < 30 | 30 to 50 | < 30 | ≥ 50 | < 30 | ≥ 50 | – | – |
| CC1=C(CC(=O)O)c2cc(F)ccc2/C1=C\c1ccc([S+]([O-])c2ccc(F)cc2)cc1 (stereo not drawn) [C45, (Z)-2-(5-Fluoro-1-(4-((4-fluorophenyl)sulfinyl)benzylidene)-2-methyl-1H-inden-3-yl)acetic acid] | < 30 | 30 to 50 | < 30 | 30 to 50 | < 30 | < 30 | < 30 | 30 to 50 | ≥ 50 | ≥ 50 | ≥ 50 | < 30 | < 30 | < 30 | ≥ 50 | – | – |
| CC1=C(CC(=O)O)c2cc(F)ccc2/C1=C\c1ccc(Sc2ccc(F)cc2)cc1 [C47, (Z)-2-(5-Fluoro-1-(4-((4-fluorophenyl)thio)benzylidene)-2-methyl-1H-inden-3-yl)acetic acid] | < 30 | ≥ 50 | < 30 | ≥ 50 | 30 to 50 | ≥ 50 | – | < 30 | < 30 | < 30 | ≥ 50 | < 30 | ≥ 50 | < 30 | ≥ 50 | < 30 | – |
| CC1=C(CC(=O)O)c2cc(F)ccc2/C1=C\c1ccc(Oc2ccc(Cl)c(Cl)c2)cc1 [C49, (Z)-2-(1-(4-(3,4-Dichlorophenoxy)benzylidene)-5-fluoro-2-methyl-1H-inden-3-yl)acetic acid] | 30 to 50 | ≥ 50 | < 30 | ≥ 50 | ≥ 50 | ≥ 50 | – | < 30 | ≥ 50 | < 30 | ≥ 50 | < 30 | ≥ 50 | ≥ 50 | ≥ 50 | – | – |
| CC1=C(CC(=O)O)c2cc(F)ccc2/C1=C\c1ccc(Oc2ccc(F)cc2)cc1Cl [C50, (Z)-2-(1-(2-Chloro-4-(4-fluorophenoxy)benzylidene)-5-fluoro-2-methyl-1H-inden-3-yl)acetic acid] | 30 to 50 | ≥ 50 | < 30 | ≥ 50 | ≥ 50 | ≥ 50 | – | < 30 | ≥ 50 | < 30 | ≥ 50 | < 30 | ≥ 50 | 30 to 50 | ≥ 50 | – | – |
| COc1cc(Oc2ccc(F)cc2)ccc1/C=C1/C(C)=C(CC(=O)O)c2cc(F)ccc21 [C51, (Z)-2-(5-Fluoro-1-(4-(4-fluorophenoxy)-2-methoxybenzylidene)-2-methyl-1H-inden-3-yl)acetic acid] | 30 to 50 | ≥ 50 | 30 to 50 | 30 to 50 | ≥ 50 | ≥ 50 | – | 30 to 50 | ≥ 50 | ≥ 50 | ≥ 50 | < 30 | ≥ 50 | 30 to 50 | ≥ 50 | – | – |
| CC1=C(CC(=O)O)c2cc(F)ccc2/C1=C\c1ccc(Oc2ccc(Cl)cc2F)cc1 [C52, (Z)-2-(1-(4-(4-Chloro-2-fluorophenoxy)benzylidene)-5-fluoro-2-methyl-1H-inden-3-yl)acetic acid] | < 30 | ≥ 50 | 30 to 50 | ≥ 50 | ≥ 50 | ≥ 50 | – | 30 to 50 | ≥ 50 | ≥ 50 | ≥ 50 | < 30 | ≥ 50 | 30 to 50 | ≥ 50 | – | – |
| CC1=C(CC(=O)O)c2cc(F)ccc2/C1=C\c1ccc(Oc2ccc(F)c(Br)c2)cc1 [C53, (Z)-2-(1-(4-(3-Bromo-4-fluorophenoxy)benzylidene)-5-fluoro-2-methyl-1H-inden-3-yl)acetic acid] | < 30 | ≥ 50 | < 30 | 30 to 50 | ≥ 50 | ≥ 50 | – | ≥ 50 | ≥ 50 | < 30 | ≥ 50 | < 30 | ≥ 50 | < 30 | ≥ 50 | – | – |
| CC1=C(CC(=O)O)c2cc(F)ccc2/C1=C\c1ccc(Oc2ccc(F)c(Cl)c2)cc1 [C54, (Z)-2-(1-(4-(3-Chloro-4-fluorophenoxy)benzylidene)-5-fluoro-2-methyl-1H-inden-3-yl)acetic acid] | < 30 | ≥ 50 | < 30 | < 30 | ≥ 50 | ≥ 50 | – | < 30 | ≥ 50 | ≥ 50 | ≥ 50 | < 30 | 30 to 50 | < 30 | ≥ 50 | – | < 30 |

From patent US20260184663A1, “INDENE COMPOUNDS, PHARMACEUTICAL COMPOSITIONS THEREOF, AND THEIR THERAPEUTIC APPLICATIONS” (NucMito Pharmaceuticals co. Ltd., priority 2022, published 2026)
